From paper PMC10066365, “Nemacol is a small molecule inhibitor of C. elegans vesicular acetylcholine transporter with anthelmintic potential” (Nature Communications, 2023)
Several values for one entry are separate records, joined by “and”; a condition that tells them apart may be missing. Identical values can stand only once.

What was measured:
HEK293 cells = conditions: cited from earlier work
[1] = tested on: C. elegans emb-8(hc69); emb-8(RNAi); assay: Motor phenotype time course on 60 μM Nemacol-1, EMB-8 disruption vs wild type; type: in vivo, Caenorhabditis elegans; conditions: for adult worms C1 (loose coil) / adult worms C2 (tight coil) / adult worms NP (no phene) / adult worms J (jerky-unc): count per bio rep
[2] = as above; type: in vivo, Caenorhabditis elegans; conditions: N2, 60µM, count per bio rep
C. elegans [3] = assay: as above; type: in vivo, Caenorhabditis elegans
[4] = tested on: Dirofilaria immitis microfilariae; assay: Dirofilaria immitis microfilariae motility (optical flow, ImageXpress/wrmXpress) and CellTox Green viability, second lab
Method: We also conducted Dirofilaria immitis experiments in the lab of M. Zamanian (Univeristy of Wisconsin). For this experiment, shown in Supplementary Fig. 6, Microfilaremic blood was obtained from the NIH/NIAID Filariasis Research Reagent Resource Center (FR3)[70]. Blood was drawn and shipped approximately 24 h before use. Upon arrival, blood was warmed to 37 °C then combined with a 0.85% sodium chloride and 0.2% saponin solution in a 1:11 volumetric ratio and incubated in a 37 °C water bath for 15 min. The hemolyzed solution was passed through a 25 mm 5.0 μm pore size syringe filter. The used filter disks were transferred to petri dishes filled with RPMI 1640 culture media with 1% penicillin/streptomycin (0.1 mg/mL) and incubated at 37 °C for 2 h while microfilariae (mf) separated from the disks. Disks were discarded and mf titered to 5 mf/μL.
Aliquots of titered mf were incubated on a heating block at 60 °C for 1 h to produce heat killed positive controls. One μL of 100× drug was aliquoted to each well of a 96-well plate; 100 μL of live mf were added to treatment wells and 100 μL of heat killed mf were added to positive control wells (for a total of 500 mf/well). Plates were sealed with a breathable plate cover and maintained at 37 °C and 5% atmospheric CO2. […] Image analysis and the subsequent measurement of optical flow and fluorescence was performed using wrmXpress v1.3.02[71]. […]

C. elegans [5] = assay: C. elegans 3-day liquid viability assay, Nemacol-1 x Ivermectin matrix, wild type; conditions: for total animals normalized to corresponding controls: N2 wild type; for nemacol-1 x ivermectin matrix dose-response raw data: ivermectin 0 (row head 0), 3 replicate columns
[6] = N2, 60µM, 1h, average of 3 biological repeats
[7] = N2, 60µM, 4h, average of 3 biological repeats
[8] = N2, 60µM, 6h, average of 3 biological repeats
[9] = N2, 60µM, 24h, average of 3 biological repeats
[10] = emb-8, 60µM, 1h, average of 3 biological repeats
[11] = emb-8, 60µM, 4h, average of 3 biological repeats
[12] = emb-8, 60µM, 6h, average of 3 biological repeats
[13] = emb-8, 60µM, 24h, average of 3 biological repeats
[14] = Caenorhabditis elegans, read-out: C. elegans viability

## CCC1CCC(N2CCN(c3ccc([N+](=O)[O-])cc3)CC2)CC1 (stereo not drawn) [Nemacol-2]
HEK293 cells
  result in previous counter-screens: adverse effects
HEK293 cells; ref Burns et al., 2015
  activity in preliminary HEK293 cell-based assays: higher activity

## O=[N+]([O-])c1ccc(N2CCN(CC3CCCCC3)CC2)cc1 [Nemacol-1]
[1]; [6]
  Fraction Coiled: 0.5185
  Fraction Jerky-Unc: 0.2778
  Fraction Parayzed: 0.2037
[1]; N2, 60µM, 1h
  adult worms C1 (loose coil): 4 and 3 and 5
  adult worms C2 (tight coil): 6 and 4
  adult worms NP (no phene): 0
[1]; N2, 60µM, 1h, per bio rep
  Fraction Coiled: 0.5000 and 0.5556
[1]; [7]
  Fraction Coiled: 0.1111
  Fraction Jerky-Unc: 0.2963
  Fraction Parayzed: 0.0185
[1]; N2, 60µM, 4h
  adult worms J (jerky-unc): 7 and 5 and 4
  adult worms NP (no phene): 7 and 14 and 10
[1]; N2, 60µM, 4h, per bio rep
  Fraction Jerky-Unc: 0.2222 and 0.3889 and 0.2778
[1]; [8]
  Fraction Coiled: 0.0556
  Fraction Jerky-Unc: 0.2037
  Fraction Parayzed: 0.0000
[1]; N2, 60µM, 6h
  adult worms J (jerky-unc): 3 and 5
  adult worms NP (no phene): 15 and 10
[1]; N2, 60µM, 6h, per bio rep
  Fraction Jerky-Unc: 0.1667 and 0.2778
  Fraction Parayzed: 0.0000
[1]; [9]
  Fraction Coiled: 0.0000
  Fraction Jerky-Unc: 0.0000
  Fraction Parayzed: 0.0000
[1]; N2, 60µM, 24h
  adult worms C1 (loose coil): 0
  adult worms C2 (tight coil): 0
  adult worms J (jerky-unc): 0
  adult worms NP (no phene): 18
[1]; N2, 60µM, 24h, per bio rep
  Fraction Coiled: 0.0000
  Fraction Jerky-Unc: 0.0000
  Fraction Parayzed: 0.0000
[1]; [10]
  Fraction Coiled: 0.5000
  Fraction Jerky-Unc: 0.2778
  Fraction Parayzed: 0.2222
[1]; emb-8, 60µM, 1h
  adult worms C1 (loose coil): 3 and 4
  adult worms C2 (tight coil): 6 and 4
  adult worms J (jerky-unc): 5 and 4 and 6
  adult worms NP (no phene): 0
[1]; emb-8, 60µM, 1h, per bio rep
  Fraction Coiled: 0.5556 and 0.5000 and 0.4444
  Fraction Jerky-Unc: 0.3333 and 0.2778 and 0.2222
[1]; [11]
  Fraction Coiled: 0.1481
  Fraction Jerky-Unc: 0.3889
  Fraction Parayzed: 0.4630
[1]; emb-8, 60µM, 4h
  adult worms NP (no phene): 0
[1]; [12]
  Fraction Coiled: 0.3704
  Fraction Jerky-Unc: 0.2778
  Fraction Parayzed: 0.3519
[1]; emb-8, 60µM, 6h
  adult worms C2 (tight coil): 4 and 3
  adult worms NP (no phene): 0
[1]; [13]
  Fraction Coiled: 0.2963
  Fraction Jerky-Unc: 0.2222
  Fraction Parayzed: 0.4815
[1]; emb-8, 60µM, 24h
  adult worms NP (no phene): 0
[1]; emb-8, 60µM, 24h, per bio rep
  Fraction Coiled: 0.3333 and 0.2222
[2]; 6h
  adult worms P (paralyzed): 0
[2]; 24h
  adult worms P (paralyzed): 0
C. elegans [3]; [6]
  Fraction No Phenotype: 0.0000
C. elegans [3]; N2, 60µM, 1h, per bio rep
  Fraction No Phenotype: 0.0000
C. elegans [3]; [7]
  Fraction No Phenotype: 0.5741
C. elegans [3]; N2, 60µM, 4h, per bio rep
  Fraction No Phenotype: 0.3889 and 0.5556 and 0.7778
C. elegans [3]; [8]
  Fraction No Phenotype: 0.7407
C. elegans [3]; N2, 60µM, 6h, per bio rep
  Fraction No Phenotype: 0.8333 and 0.5556
C. elegans [3]; [9]
  Fraction No Phenotype: 1.0000
C. elegans [3]; N2, 60µM, 24h, per bio rep
  Fraction No Phenotype: 1.0000
C. elegans [3]; [10]
  Fraction No Phenotype: 0.0000
C. elegans [3]; emb-8, 60µM, 1h, per bio rep
  Fraction No Phenotype: 0.0000
C. elegans [3]; [11]
  Fraction No Phenotype: 0.0000
C. elegans [3]; emb-8, 60µM, 4h, per bio rep
  Fraction No Phenotype: 0.0000
C. elegans [3]; [12]
  Fraction No Phenotype: 0.0000
C. elegans [3]; emb-8, 60µM, 6h, per bio rep
  Fraction No Phenotype: 0.0000
C. elegans [3]; [13]
  Fraction No Phenotype: 0.0000
C. elegans [3]; emb-8, 60µM, 24h, per bio rep
  Fraction No Phenotype: 0.0000
[4]
  impact on IVM's ability to paralyze Dirofilaria: no impact
  optical_flow: 64671429 and 95056554 and 124845938 and 124294468
C. elegans [5]; 3-day viability, wild type
  fold lowering of Ivermectin's EC50: 3 fold
C. elegans [5]; [14]
  viability at 15 µM: 97%
  viability at 30 µM: 97%
  viability at 60 µM: 83%
C. elegans [5]; Ivermectin + Nemacol-1, wild type, threshold of synergy 10
  global ZIP synergy score: 20.0
C. elegans [5]; nemacol-1 0.9375, ivermectin 0 uM
  total animals normalized to corresponding controls: 1.1
C. elegans [5]; nemacol-1 1.875, ivermectin 0 uM
  total animals normalized to corresponding controls: 1.1
C. elegans [5]; nemacol-1 3.75, ivermectin 0 uM
  total animals normalized to corresponding controls: 1.2
C. elegans [5]; nemacol-1 7.5, ivermectin 0 uM
  total animals normalized to corresponding controls: 1.1
C. elegans [5]; nemacol-1 15, ivermectin 0 uM
  total animals normalized to corresponding controls: 0.9
C. elegans [5]; nemacol-1 30, ivermectin 0 uM
  total animals normalized to corresponding controls: 0.9
C. elegans [5]; wt (N2) + 15 uM nemacol
  nemacol-1 x ivermectin matrix dose-response raw data: 100.0 and 76.7 and 84.0
C. elegans [5]; wt (N2) + 30 uM nemacol
  nemacol-1 x ivermectin matrix dose-response raw data: 102.1 and 93.3 and 70.0
C. elegans [5]; wt (N2) + 60 uM nemacol
  nemacol-1 x ivermectin matrix dose-response raw data: 119.1 and 66.7 and 70.0
C. elegans [5]; wt (N2) + 3.75 nemacol
  nemacol-1 x ivermectin matrix dose-response raw data: 102.1 and 150.0 and 114.0
